Source: patent US20170354148A1, “SAFENED HERBICIDAL COMPOSITIONS CONTAINING HALAUXIFEN AND METHODS OF USE THEREOF IN BRASSICA SPECIES” (Dow AgroSciences LLC, priority 2016, published 2017)

Assays:
Assay in all cases: Example 5 greenhouse trials, postemergence visual injury
[1] = tested on: rutabaga (Brassica napus var. napobrassica, BRSNA); conditions: for % Visual Injury Obs / Visual Injury Obs: BRSNA
[2] = tested on: Nexera™ canola (Brassica napus, BRSNN-NEX); conditions: for % Visual Injury Obs / Visual Injury Obs: BRSNN-NEX
[3] = tested on: winter oilseed rape (Brassica napus, BRSNW); conditions: for % Visual Injury Obs / Visual Injury Obs: BRSNW
[4] = tested on: turnip or Polish canola (Brassica rapa, BRSRR); conditions: for % Visual Injury Obs / Visual Injury Obs: BRSRR
[5] = tested on: Roundup Ready® canola (Brassica napus, RR-BRSNN); conditions: for % Visual Injury Obs / Visual Injury Obs: RR-BRSNN
[6] = halauxifen-methyl alone 2.5 g ai/ha
[7] = halauxifen-methyl alone 5 g ai/ha
[8] = halauxifen-methyl alone 10 g ai/ha

With `O=C(O)c1nc(Cl)ccc1Cl` [Clopyralid-olamine, 2-hydroxyethanaminium 3,6-dichloro-2-pyridinecarboxylate] the “% Visual Injury Obs” value ([1]; 50 g ai/ha alone, 20-22 d) was 0%, the “% Visual Injury Obs” value ([1]; 100 g ai/ha alone, 20-22 d) was 0% and the “% Visual Injury Obs” value ([1]; 200 g ai/ha alone, 20-22 d) was 0%. The “% Visual Injury Obs” value ([2]; 50 g ai/ha alone, 20-22 d) was 0%, the “% Visual Injury Obs” value ([2]; 100 g ai/ha alone, 20-22 d) was 0% and the “% Visual Injury Obs” value ([2]; 200 g ai/ha alone, 20-22 d) was 0%. For the same molecule, the “% Visual Injury Obs” value ([3]; 50 g ai/ha alone, 20-22 d) was 0%, the “% Visual Injury Obs” value ([3]; 100 g ai/ha alone, 20-22 d) was 0% and the “% Visual Injury Obs” value ([3]; 200 g ai/ha alone, 20-22 d) was 0%. The “% Visual Injury Obs” value ([4]; 50 g ai/ha alone, 20-22 d) was 0%, the “% Visual Injury Obs” value ([4]; 100 g ai/ha alone, 20-22 d) was 0% and the “% Visual Injury Obs” value ([4]; 200 g ai/ha alone, 20-22 d) was 0%. The “% Visual Injury Obs” value ([5]; 50 g ai/ha alone, 20-22 d) was 0%, the “% Visual Injury Obs” value ([5]; 100 g ai/ha alone, 20-22 d) was 0% and the “% Visual Injury Obs” value ([5]; 200 g ai/ha alone, 20-22 d) was 0%.

With `COC(=O)c1nc(-c2ccc(Cl)c(OC)c2F)cc(N)c1Cl` [Halauxifen-methyl, methyl 4-amino-3-chloro-6-(4-chloro-2-fluoro-3-methoxyphenyl)-2-pyridineccarboxylate] the “% Visual Injury Obs” value ([1]; 2.5 g ai/ha alone, 20-22 d) was 5%, the “% Visual Injury Obs” value ([1]; 5 g ai/ha alone, 20-22 d) was 5% and the “% Visual Injury Obs” value ([1]; 10 g ai/ha alone, 20-22 d) was 10%. For the same molecule, the “% Visual Injury Obs” value ([1]; halauxifen-methyl 2.5 g ai/ha) was 5%, the “Visual Injury Obs” value ([1]; halauxifen-methyl 2.5 g ai/ha) was 5% and the “% Visual Injury Obs” value ([1]; halauxifen-methyl 5 g ai/ha) was 5%. For the same molecule, the “Visual Injury Obs” value ([1]; halauxifen-methyl 5 g ai/ha) was 5%, the “% Visual Injury Obs” value ([1]; halauxifen-methyl 10 g ai/ha) was 10% and the “Visual Injury Obs” value ([1]; halauxifen-methyl 10 g ai/ha) was 10%. The “Percent (%) Visual Injury BRSNA Obs” value [1, 6] was 5%, the “Percent (%) Visual Injury BRSNA Obs” value [1, 7] was 5% and the “Percent (%) Visual Injury BRSNA Obs” value [1, 8] was 10%. The “% Visual Injury Obs” value ([2]; 2.5 g ai/ha alone, 20-22 d) was 15%, the “% Visual Injury Obs” value ([2]; 5 g ai/ha alone, 20-22 d) was 20% and the “% Visual Injury Obs” value ([2]; 10 g ai/ha alone, 20-22 d) was 23%. The “% Visual Injury Obs” value ([2]; halauxifen-methyl 2.5 g ai/ha) was 15%, the “Visual Injury Obs” value ([2]; halauxifen-methyl 2.5 g ai/ha) was 15% and the “% Visual Injury Obs” value ([2]; halauxifen-methyl 5 g ai/ha) was 20%. The “Visual Injury Obs” value ([2]; halauxifen-methyl 5 g ai/ha) was 20%, the “% Visual Injury Obs” value ([2]; halauxifen-methyl 10 g ai/ha) was 23% and the “Visual Injury Obs” value ([2]; halauxifen-methyl 10 g ai/ha) was 23%. The “Percent (%) Visual Injury BRSNN-NEX Obs” value [2, 6] was 15%, the “Percent (%) Visual Injury BRSNN-NEX Obs” value [2, 7] was 20% and the “Percent (%) Visual Injury BRSNN-NEX Obs” value [2, 8] was 23%. The “% Visual Injury Obs” value ([3]; 2.5 g ai/ha alone, 20-22 d) was 7%, the “% Visual Injury Obs” value ([3]; 5 g ai/ha alone, 20-22 d) was 10% and the “% Visual Injury Obs” value ([3]; 10 g ai/ha alone, 20-22 d) was 14%. For the same molecule, the “% Visual Injury Obs” value ([3]; halauxifen-methyl 2.5 g ai/ha) was 7%, the “Visual Injury Obs” value ([3]; halauxifen-methyl 2.5 g ai/ha) was 7% and the “% Visual Injury Obs” value ([3]; halauxifen-methyl 5 g ai/ha) was 10%. For the same molecule, the “Visual Injury Obs” value ([3]; halauxifen-methyl 5 g ai/ha) was 10%, the “% Visual Injury Obs” value ([3]; halauxifen-methyl 10 g ai/ha) was 14% and the “Visual Injury Obs” value ([3]; halauxifen-methyl 10 g ai/ha) was 14%. The “Percent (%) Visual Injury BRSNW Obs” value [3, 6] was 7%, the “Percent (%) Visual Injury BRSNW Obs” value [3, 7] was 10% and the “Percent (%) Visual Injury BRSNW Obs” value [3, 8] was 14%. For the same molecule, the “% Visual Injury Obs” value ([4]; 2.5 g ai/ha alone, 20-22 d) was 5%, the “% Visual Injury Obs” value ([4]; 5 g ai/ha alone, 20-22 d) was 6% and the “% Visual Injury Obs” value ([4]; 10 g ai/ha alone, 20-22 d) was 10%. The “% Visual Injury Obs” value ([4]; halauxifen-methyl 2.5 g ai/ha) was 5%, the “Visual Injury Obs” value ([4]; halauxifen-methyl 2.5 g ai/ha) was 5% and the “% Visual Injury Obs” value ([4]; halauxifen-methyl 5 g ai/ha) was 6%. For the same molecule, the “Visual Injury Obs” value ([4]; halauxifen-methyl 5 g ai/ha) was 6%, the “% Visual Injury Obs” value ([4]; halauxifen-methyl 10 g ai/ha) was 10% and the “Visual Injury Obs” value ([4]; halauxifen-methyl 10 g ai/ha) was 10%. For the same molecule, the “Percent (%) Visual Injury BRSRR Obs” value [4, 6] was 5%, the “Percent (%) Visual Injury BRSRR Obs” value [4, 7] was 6% and the “Percent (%) Visual Injury BRSRR Obs” value [4, 8] was 10%. The “% Visual Injury Obs” value ([5]; 2.5 g ai/ha alone, 20-22 d) was 11%, the “% Visual Injury Obs” value ([5]; 5 g ai/ha alone, 20-22 d) was 14% and the “% Visual Injury Obs” value ([5]; 10 g ai/ha alone, 20-22 d) was 21%. For the same molecule, the “% Visual Injury Obs” value ([5]; halauxifen-methyl 2.5 g ai/ha) was 11%, the “Visual Injury Obs” value ([5]; halauxifen-methyl 2.5 g ai/ha) was 11% and the “% Visual Injury Obs” value ([5]; halauxifen-methyl 5 g ai/ha) was 14%. The “Visual Injury Obs” value ([5]; halauxifen-methyl 5 g ai/ha) was 14%, the “% Visual Injury Obs” value ([5]; halauxifen-methyl 10 g ai/ha) was 21% and the “Visual Injury Obs” value ([5]; halauxifen-methyl 10 g ai/ha) was 21%. The “Percent (%) Visual Injury RR-BRSNN Obs” value [5, 6] was 11%, the “Percent (%) Visual Injury RR-BRSNN Obs” value [5, 7] was 14% and the “Percent (%) Visual Injury RR-BRSNN Obs” value [5, 8] was 21%.
